Test results as given in paper PMC5352362, “Molecular and functional evaluation of a novel HIF inhibitor, benzopyranyl 1,2,3-triazole compound” (Oncotarget, 2016).
Entries after “also recorded” stand apart in the source; their conditions may differ.

Experiments:
HIF-1α = HIF-1α (Homo sapiens, UniProt Q16665); assay: Western blot of HIF-1α protein in hypoxic HEK-293 cells; type: cell-based; settings: HEK293, 1 nM, hypoxia 16 h, read-out: downregulation of HIF-1α protein expression
Protocol: (B, C) After HEK-293 cells (B) and A549 cells (C) were treated with Compound 12 (at concentrations of 0 nM, 0.1 nM, 1 nM, 10 nM, 100 nM, and 1000 nM) under hypoxic conditions for 16 h, expression of HIF-1α was determined by western blot analysis and then graphed. (D, E) Half maximal inhibitory concentration (IC50) values were calculated using GraphPad Prism software, using the quantified HIF-1α levels determined in B and C.
HEK-293 cells and A549 cells were treated with Compound 12, at 0.1–1000 nM concentrations, under hypoxic conditions for 16 h.
Proteins extracted from cells using PRO-PREP (iNtRon Biotech, South Korea) were separated by SDS-PAGE and transferred to a nitrocellulose membrane (Whatman, Maidstone, UK). Membranes were blocked with 5% skim milk in Tris-buffered saline (TBS) containing 0.1% Tween-20 for 30 min at room temperature (RT). After blocking, membranes were incubated with specific primary antibodies overnight at 4°C, followed by incubation with horseradish peroxidase-conjugated mouse- or rabbit-IgG for 1 h at RT. Antibody binding was detected using an enhanced chemiluminescence (ECL) kit (BioRad, Hercules, CA) according to the manufacturer's instructions. […]

[1] = test system: Lewis lung carcinoma (LLC) cells; assay: Lewis lung carcinoma allograft in C57BL/6J mice with immunohistochemistry; type: in vivo, mouse
Protocol: HIF-1α is synthesized by growth factor signaling pathways, such as those of EGFR [30] [31]. Inhibition of HIF-1α in its pathways of synthesis, as well as in its pathway of degradation, would seem to make for a more efficient anti-cancer/anti-angiogenesis treatment. To confirm this, we performed a tumor allogaft experiment using Lewis lung carcinoma (LLC) cells. 1 × 10^6 LLC cells were inoculated into the mouse flank subcutaneously (s.c.), and treatment with Compound 12 (5 mg/kg) and/or gefitinib (an EGFR inhibitor, 50 mg/kg), via intraperitoneal (i.p.) administration, was performed every other day for 20 days. At Day 20, mice were sacrificed and tumor tissue was fixed in formaldehyde for 1 h for further histological examination. […] To confirm the effect of Compound 12 on angiogenesis, we analyzed angiogenesis using the Matrigel plug assay. […] To confirm the effects of Compound 12 on anti-angiogenesis, we sectioned the tumor tissues to determine microvessel density (MSD) via immunohistochemistry (using CD31 antibody).
Figure 6 Compound 12 suppressed allogaft tumor growth and enhanced the effects of a chemotherapeutic agent (A, B) Lewis lung carcinoma cells were inoculated into flanks of C57BL/6J mice (Day 0). From two days after inoculation, mice were treated intraperitoneally with Compound 12 (5 mg/kg body weight) and gefitinib (50 mg/kg body weight), three times a week, for 18 days and then sacrificed. Tumor size (A) and tumor weight (B) were measured three times a week and on the final day, respectively. Tumor masses were photographed and shown in box below the graph. **P < 0.05 versus control group. (C) Matrigel was treated with DMSO, Compound 12 (100 nM), and gefitinib (5 μM) and inoculated in the flank of C57BL/6J mice. After 10 days matrigel plug was removed and photographed. The content of hemoglobin was quantified and graphed. (D) Tumor tissue sections (10 μm) indicated were stained with H&E and immunostained with anti-CD31 antibody to detect microvessel density; CD31+ cell percentages were then calculated and graphed. Scale bar, 100 μm. **P < 0.05 versus control group. (E) Images and quantitative comparisons (graph) for hypoxic regions, immunostained CA9 protein, and microvessels (CD31+ cells) in tumor center regions are shown. Scale bar, 100 μm. **P < 0.05 versus control group. (F) Images and quantitative comparisons (graph) for Ki67+ proliferating cells in tumor center regions are shown. Scale bar, 100 μm. **P < 0.05 versus control group.
We determined levels of hypoxia in tissues via: 1) antibodies against the hypoxic cell marker pimonidazole (PIMO), and 2) checking expression levels of carbonic anhydrase (CA9), a downstream target of HIF-1.
LLC cells (1 × 10^6) were injected subcutaneously into the flanks of 6-week-old C57BL/6J mice (Day 0)(SLC, Japan). Tumor size and body weight were measured 3 time a week. Tumor tissues were removed at day 20 after completion of injection of vehicle or drugs and fixed with 4% paraformaldehyde (PFA). After tissue processing for frozen sample preparation protocol, samples were embedded in OCT compound and frozen quickly by liquid nitrogen. Frozen blocks were cut into 10 μm sections and stained with hematoxylin and eosin (H&E) for light microscopy. Additional tissue sections for immunohistochemistry were blocked with 5% goat serum in PBST (0.03% Triton X-100 in PBS) and then incubated for 3 h at RT with following primary antibodies, anti-CD31 and anti-Ki67. To detect the hypoxic area in the tumors, Hypoxyprobe-1™ (60 mg/kg, Natural Pharmacia International) was iv injected 90 min before tissue fixation. Tumors were harvested, sectioned and stained with FITC-conjugated anti-Hypoxyprobe antibody.

HIF-1α, sequence (Q16665 whole entry): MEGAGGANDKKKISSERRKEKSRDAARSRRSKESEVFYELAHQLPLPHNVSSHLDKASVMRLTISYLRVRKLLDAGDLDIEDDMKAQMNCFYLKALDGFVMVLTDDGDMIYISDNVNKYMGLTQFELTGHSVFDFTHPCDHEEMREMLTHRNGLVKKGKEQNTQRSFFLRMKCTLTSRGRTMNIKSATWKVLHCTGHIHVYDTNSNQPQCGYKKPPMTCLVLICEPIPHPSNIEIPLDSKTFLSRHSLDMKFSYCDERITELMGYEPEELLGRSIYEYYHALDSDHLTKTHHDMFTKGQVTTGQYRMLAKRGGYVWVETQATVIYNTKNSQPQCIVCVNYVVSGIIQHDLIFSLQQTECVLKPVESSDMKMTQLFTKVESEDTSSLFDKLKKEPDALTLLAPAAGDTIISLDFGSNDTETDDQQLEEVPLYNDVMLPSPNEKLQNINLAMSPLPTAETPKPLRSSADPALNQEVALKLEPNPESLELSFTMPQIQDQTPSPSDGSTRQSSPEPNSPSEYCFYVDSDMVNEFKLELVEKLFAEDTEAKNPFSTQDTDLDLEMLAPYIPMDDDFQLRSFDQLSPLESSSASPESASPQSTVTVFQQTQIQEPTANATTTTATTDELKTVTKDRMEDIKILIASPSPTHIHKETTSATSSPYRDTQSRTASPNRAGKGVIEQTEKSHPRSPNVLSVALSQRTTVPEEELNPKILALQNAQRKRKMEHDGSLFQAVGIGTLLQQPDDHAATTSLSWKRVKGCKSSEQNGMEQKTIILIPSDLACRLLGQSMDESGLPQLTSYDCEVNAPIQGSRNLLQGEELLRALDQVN

Structure (SMILES): COc1ccc(-c2cn(CC3(C)C=Cc4cc([N+](=O)[O-])ccc4O3)nn2)cc1 (stereo not drawn) [Compound 12, 4-(4-methoxyphenyl)-1-((2-methyl-6-nitro-2H-chromen-2-yl)methyl)-1H-1,2,3-triazole]
- inhibition at 0.001 µM (HIF-1α): ~30%
- PIMO/CA9 levels in tumors, Compound 12 combined with gefitinib ([1]; LLC allograft tumor sections): decreased synergistically
- levels of PIMO and CA9 in tumors, single agent ([1]; LLC allograft tumor sections): significantly diminished
- microvessel density (MSD), CD31, Compound 12 combined with gefitinib ([1]; LLC allograft tumor sections): synergistically decreased MSD
- microvessel density (MSD), CD31, single agent ([1]; LLC allograft tumor sections): significantly decreased MSD
- cells expressing Ki-67 protein in tumors ([1]; LLC allograft tumor sections, single agent): significantly decreased
- tumor growth, single agent ([1]; LLC allograft, C57BL/6J mice, i.p., Compound 12 5 mg/kg, gefitinib 50 mg/kg): inhibited tumor growth significantly
- tumor weight ([1]; LLC allograft, i.p., 5 mg/kg, final day): significantly decreased
- tumor growth, Compound 12 combined with gefitinib ([1]; LLC allograft, i.p., Compound 12 5 mg/kg plus gefitinib 50 mg/kg): significantly inhibited tumor growth and angiogenesis; also recorded: suppressed tumor growth more effectively than did either drug alone
